PMC8430323, “Microbial Enzymatic Synthesis of Amikacin Analogs With Antibacterial Activity Against Multidrug-Resistant Pathogens” (Frontiers in Microbiology, 2021)

What was measured:
AAC(6′)-APH(2^″) = molecular target: T1, AAC(6′)-APH(2^″) (Staphylococcus aureus, UniProt P0A0C1); experiment: UPLC-qTOF-HR-MS of […]'-N-acylation product, structure confirmed by NMR; format: biochemical; conditions: acyl donor; one-pot with GenN, amikacin 2 mM, SAM 2 mM, 50 mM Tris-HCl pH 7.5, 30 °C, 12 h, enzyme 500 μM
T1 construct: gene aacA-aphD; codon-optimized synthetic gene in pET15b, His-tagged, expressed in E. coli BL21(DE3), Ni-NTA purified; bifunctional enzyme
T1 sequence (P0A0C1 whole entry): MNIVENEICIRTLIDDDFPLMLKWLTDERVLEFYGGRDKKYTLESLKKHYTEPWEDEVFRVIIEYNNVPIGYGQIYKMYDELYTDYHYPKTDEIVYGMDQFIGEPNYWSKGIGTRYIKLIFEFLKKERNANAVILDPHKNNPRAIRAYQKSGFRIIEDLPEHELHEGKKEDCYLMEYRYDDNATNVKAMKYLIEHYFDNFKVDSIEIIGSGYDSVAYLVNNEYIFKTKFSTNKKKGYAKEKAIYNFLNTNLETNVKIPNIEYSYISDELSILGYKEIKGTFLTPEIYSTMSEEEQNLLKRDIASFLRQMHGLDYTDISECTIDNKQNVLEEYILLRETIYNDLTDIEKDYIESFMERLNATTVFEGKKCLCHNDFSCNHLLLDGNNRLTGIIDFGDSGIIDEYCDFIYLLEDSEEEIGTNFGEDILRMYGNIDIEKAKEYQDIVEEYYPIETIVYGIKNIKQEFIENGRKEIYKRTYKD

GenN = molecular target: T2, GenN (Micromonospora echinospora, UniProt Q2MG72); experiment: UPLC-qTOF-HR-MS of methylation product, structure confirmed by NMR; format: biochemical; conditions: SAM 2 mM, amikacin 2 mM, 50 mM Tris-HCl pH 7.5, 30 °C, 12 h, enzyme 500 μM
T2 construct: codon-optimized synthetic gene in pJExpress404, His-tagged, expressed in E. coli BL21(DE3), Ni-NTA purified
T2 sequence (Q2MG72 1-321): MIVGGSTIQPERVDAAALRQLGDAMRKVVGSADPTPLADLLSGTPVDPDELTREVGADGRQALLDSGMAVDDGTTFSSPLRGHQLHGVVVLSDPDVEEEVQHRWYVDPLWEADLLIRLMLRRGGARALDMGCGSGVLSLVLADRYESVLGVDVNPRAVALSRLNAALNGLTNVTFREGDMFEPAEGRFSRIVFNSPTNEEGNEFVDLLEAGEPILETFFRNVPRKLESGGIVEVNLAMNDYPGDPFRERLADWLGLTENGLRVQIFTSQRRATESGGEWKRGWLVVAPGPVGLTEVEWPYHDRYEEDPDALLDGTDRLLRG

Row | SMILES | conversion yield (AAC(6′)-APH(2^″)) | conversion yield (GenN)
1 | CC(=O)SCCNC(=O)CCNC(=O)[C@H](O)C(C)(C)COP(=O)(O)OP(=O)(O)OC[C@H]1O[C@@H](n2cnc3c(N)ncnc32)[C@H](O)[C@@H]1OP(=O)(O)O [acetyl-CoA] | Incubation with acetyl-CoA and propionyl-CoA as cosubstrates led to the formation of new UPLC peaks | 
2 | NCC[C@H](O)C(=O)N[C@@H]1C[C@H](N)[C@@H](O[C@H]2O[C@H](CN)[C@@H](O)[C@H](O)[C@H]2O)[C@H](O)[C@H]1O[C@H]1O[C@H](CO)[C@@H](O)[C@H](N)[C@H]1O [amikacin] |  | Amikacin was an excellent substrate for SAM-dependent methylation by GenN
3 | CCC(=O)SCCNC(=O)CCNC(=O)[C@H](O)C(C)(C)COP(=O)(O)OP(=O)(O)OC[C@H]1O[C@@H](n2cnc3c(N)ncnc32)[C@H](O)[C@@H]1OP(=O)(O)O [propionyl-CoA] | Incubation with acetyl-CoA and propionyl-CoA as cosubstrates led to the formation of new UPLC peaks | 
